Values of other authors in patent publication US6472222B2, “Method of estimating rate of nicotine metabolism in individuals” (Via Christi Research, Inc., priority 1999, dated 2002).

half-life (plasma) | Compound | half-life (biphasic elimination, second phase) (biphasic elimination, longer of two half-lives) | half-life (biphasic elimination, first, short phase) (biphasic elimination, shorter of two half-lives)
approximately 19 hours | CN1C(=O)CC[C@H]1c1cccnc1 [cotinine] | – | –
– | CN1CCCC1c1cccnc1 (stereo not drawn) [nicotine] | ~2 h | approximately 10 minutes
